Measured values: PubChem BioAssay (NCI)
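How tested: cells in 96-well plates exposed to compound for 48 hours at five concentrations. GI50 marks 50% less growth. The concentration for full growth arrest is given as TGI.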

Experiments:
Assay in all cases: growth of human tumour cells (NCI), 48 h; in the data active = GI50 below about 0.43 µM; inactive = the rest
PC-3 prostate = test system: PC-3 prostate
CCRF-CEM leukemia = test system: CCRF-CEM leukemia
RXF 393 renal = test system: RXF 393 renal
U251 CNS = test system: U251 CNS
TK-10 renal = test system: TK-10 renal
DU-145 prostate = test system: DU-145 prostate
A498 renal = test system: A498 renal
OVCAR-3 ovarian = test system: OVCAR-3 ovarian
RPMI-8226 leukemia = test system: RPMI-8226 leukemia
SW-620 colon = test system: SW-620 colon
SF-295 CNS = test system: SF-295 CNS
IGROV1 ovarian = test system: IGROV1 ovarian
SK-MEL-28 melanoma = test system: SK-MEL-28 melanoma
SK-MEL-2 melanoma = test system: SK-MEL-2 melanoma
SK-MEL-5 melanoma = test system: SK-MEL-5 melanoma
MOLT-4 leukemia = test system: MOLT-4 leukemia
HCT-116 colon = test system: HCT-116 colon
KM12 colon = test system: KM12 colon
MCF7 breast = test system: MCF7 breast
SR leukemia = test system: SR leukemia
HCC-2998 colon = test system: HCC-2998 colon
UO-31 renal = test system: UO-31 renal
BT-549 breast = test system: BT-549 breast
SK-OV-3 ovarian = test system: SK-OV-3 ovarian
EKVX NSCLC = test system: EKVX NSCLC
NCI/ADR-RES ovarian = test system: NCI/ADR-RES ovarian
HT29 colon = test system: HT29 colon
SNB-75 CNS = test system: SNB-75 CNS
A549 NSCLC = test system: A549 NSCLC
HOP-92 NSCLC = test system: HOP-92 NSCLC
HCT-15 colon = test system: HCT-15 colon
SF-268 CNS = test system: SF-268 CNS
MDA-MB-231 breast = test system: MDA-MB-231 breast
HS 578T breast = test system: HS 578T breast
NCI-H23 lung = test system: NCI-H23 lung
MDA-MB-435 = test system: MDA-MB-435
NCI-H460 lung = test system: NCI-H460 lung
T-47D breast = test system: T-47D breast
MALME-3M melanoma = test system: MALME-3M melanoma
SNB-19 CNS = test system: SNB-19 CNS
SF-539 CNS = test system: SF-539 CNS
NCI-H522 lung = test system: NCI-H522 lung
LOX IMVI melanoma = test system: LOX IMVI melanoma
COLO 205 colon = test system: COLO 205 colon
UACC-62 melanoma = test system: UACC-62 melanoma
OVCAR-5 ovarian = test system: OVCAR-5 ovarian
K-562 leukemia = test system: K-562 leukemia
786-0 renal = test system: 786-0 renal
SN12C renal = test system: SN12C renal
ACHN renal = test system: ACHN renal
OVCAR-8 ovarian = test system: OVCAR-8 ovarian
HL-60(TB) leukemia = test system: HL-60(TB) leukemia
NCI-H226 lung = test system: NCI-H226 lung
CAKI-1 renal = test system: CAKI-1 renal
HOP-62 NSCLC = test system: HOP-62 NSCLC
M14 melanoma = test system: M14 melanoma
OVCAR-4 ovarian = test system: OVCAR-4 ovarian

C[C@@H]1C[N+]2([O-])[C@H]3C4=CCC[C@@H]4CC[C@H]3[C@@]3(C)OC(=O)CC[C@]34CC[C@H]1[C@@H]42 (some centres undefined)
inactive: GI50 (PC-3 prostate) > 60 µM | GI50 (CCRF-CEM leukemia) > 60 µM | GI50 (RXF 393 renal) > 60 µM | GI50 (U251 CNS) > 60 µM | GI50 (TK-10 renal) > 60 µM | GI50 (DU-145 prostate) > 60 µM | GI50 (A498 renal) > 60 µM | GI50 (OVCAR-3 ovarian) > 60 µM | GI50 (RPMI-8226 leukemia) > 60 µM | GI50 (SW-620 colon) > 60 µM | GI50 (SF-295 CNS) > 60 µM | GI50 (IGROV1 ovarian) > 60 µM | GI50 (SK-MEL-28 melanoma) > 60 µM | GI50 (SK-MEL-2 melanoma) > 60 µM | GI50 (SK-MEL-5 melanoma) > 60 µM | GI50 (MOLT-4 leukemia) > 60 µM | GI50 (HCT-116 colon) > 60 µM | GI50 (KM12 colon) > 60 µM | GI50 (MCF7 breast) > 60 µM | GI50 (SR leukemia) > 60 µM | GI50 (HCC-2998 colon) > 60 µM | GI50 (UO-31 renal) > 60 µM | GI50 (BT-549 breast) > 60 µM | GI50 (SK-OV-3 ovarian) > 60 µM | GI50 (EKVX NSCLC) > 60 µM | GI50 (NCI/ADR-RES ovarian) > 60 µM | GI50 (HT29 colon) > 60 µM | GI50 (SNB-75 CNS) > 60 µM | GI50 (A549 NSCLC) > 60 µM | GI50 (HOP-92 NSCLC) > 60 µM | GI50 (HCT-15 colon) > 60 µM | GI50 (SF-268 CNS) > 60 µM | GI50 (MDA-MB-231 breast) > 60 µM | GI50 (HS 578T breast) > 60 µM | GI50 (NCI-H23 lung) > 60 µM | GI50 (MDA-MB-435) > 60 µM | GI50 (NCI-H460 lung) > 60 µM | GI50 (T-47D breast) > 60 µM | GI50 (MALME-3M melanoma) > 60 µM | GI50 (SNB-19 CNS) > 60 µM | GI50 (SF-539 CNS) > 60 µM | GI50 (NCI-H522 lung) > 60 µM | GI50 (LOX IMVI melanoma) > 60 µM | GI50 (COLO 205 colon) > 60 µM | GI50 (UACC-62 melanoma) > 60 µM | GI50 (OVCAR-5 ovarian) > 60 µM | GI50 (K-562 leukemia) > 60 µM | GI50 (786-0 renal) > 60 µM | GI50 (SN12C renal) > 60 µM | GI50 (ACHN renal) > 60 µM | GI50 (OVCAR-8 ovarian) > 60 µM | GI50 (HL-60(TB) leukemia) > 60 µM | GI50 (NCI-H226 lung) > 60 µM | GI50 (CAKI-1 renal) > 60 µM | GI50 (HOP-62 NSCLC) > 60 µM | GI50 (M14 melanoma) > 60 µM | GI50 (OVCAR-4 ovarian) > 60 µM
> 60 µM: TGI (PC-3 prostate) | TGI (CCRF-CEM leukemia) | TGI (RXF 393 renal) | TGI (U251 CNS) | TGI (TK-10 renal) | TGI (DU-145 prostate) | TGI (A498 renal) | TGI (OVCAR-3 ovarian) | TGI (RPMI-8226 leukemia) | TGI (SW-620 colon) | TGI (SF-295 CNS) | TGI (IGROV1 ovarian) | TGI (SK-MEL-28 melanoma) | TGI (SK-MEL-2 melanoma) | TGI (SK-MEL-5 melanoma) | TGI (MOLT-4 leukemia) | TGI (HCT-116 colon) | TGI (KM12 colon) | TGI (MCF7 breast) | TGI (SR leukemia) | TGI (HCC-2998 colon) | TGI (UO-31 renal) | TGI (BT-549 breast) | TGI (SK-OV-3 ovarian) | TGI (EKVX NSCLC) | TGI (NCI/ADR-RES ovarian) | TGI (HT29 colon) | TGI (SNB-75 CNS) | TGI (A549 NSCLC) | TGI (HOP-92 NSCLC) | TGI (HCT-15 colon) | TGI (SF-268 CNS) | TGI (MDA-MB-231 breast) | TGI (HS 578T breast) | TGI (NCI-H23 lung) | TGI (MDA-MB-435) | TGI (NCI-H460 lung) | TGI (T-47D breast) | TGI (MALME-3M melanoma) | TGI (SNB-19 CNS) | TGI (SF-539 CNS) | TGI (NCI-H522 lung) | TGI (LOX IMVI melanoma) | TGI (COLO 205 colon) | TGI (UACC-62 melanoma) | TGI (OVCAR-5 ovarian) | TGI (K-562 leukemia) | TGI (786-0 renal) | TGI (SN12C renal) | TGI (ACHN renal) | TGI (OVCAR-8 ovarian) | TGI (HL-60(TB) leukemia) | TGI (NCI-H226 lung) | TGI (CAKI-1 renal) | TGI (HOP-62 NSCLC) | TGI (M14 melanoma) | TGI (OVCAR-4 ovarian)
